Laboratory results: patent publication US6110967A, “Epoxysuccinamide derivative or salt thereof” (Taiho Pharmaceuticals Co., Ltd., priority 1997, dated 2000)
Structures can show the parent of a compound that is named as a salt.

How the values were obtained:
Cathepsin B = target: T1, Cathepsin B (Rattus norvegicus, UniProt P00787); assay: Determination of inhibition activity against cathepsin B (substrate Z-Arg-Arg-MCA); assay type: biochemical; conditions: cathepsin B purified from rat liver, pH 5.5, 30° C., 10 minutes
T1 construct: extracted from a rat liver and completely purified; from tissue; host or cells: rat liver
Protocol: (§1) Determination of inhibition activity against cathepsin L and cathepsin B:
One that extracted from a rat liver and completely purified in accordance with the method described in Biochem. Biophys. Res. Commun., 83, 513-520 (1978) was used as cathepsin B, and as a substrate thereof, Z-Arg-Arg-MCA was used.
(§2) Each cathepsin was diluted with a diluent (0.1% Brij 35) to adjust its concentration to 0.3 U (0.1 U: a concentration at which 1.0 nmol of MCA is released per minute at 37° C.). An activator/buffer (340 mM sodium acetate, 60 mM acetic acid, 4 mM disodium EDTA; pH 5.5; 250 μl) was added to the solution (500 μl). After the mixture was incubated for 1 minute at 30° C., a specimen solution of the predetermined concentration and a substrate solution ([…]) were added to conduct a reaction for 10 minutes. The reaction was stopped with a reaction terminator (100 mM sodium monochloroacetate, […] sodium acetate, […] acetic acid; pH 4.3; 1 ml) to determine the fluorescence intensity of aminomethylcoumarin isolated under fluorescence 460 nm in wavelength obtained by excitation at a wavelength of 370 nm using a fluorometer.

Cathepsin L = target: T2, Cathepsin L (Rattus norvegicus, UniProt P07154); assay: Determination of inhibition activity against cathepsin L (substrate Z-Phe-Arg-MCA); assay type: biochemical; conditions: cathepsin L purified from rat liver, pH 5.5, 30° C., 10 minutes
T2 construct: extracted from a rat liver and completely purified; from tissue; host or cells: rat liver
Protocol: as §1
Cathepsin L that extracted from a rat liver and completely purified in accordance with the method described in J. Biochem., 84, 650-671 (1978) was used, and as a substrate thereof, Z-Phe-Arg-MCA was used.
as §2

T1 sequence (P00787 80-126 limits assumed): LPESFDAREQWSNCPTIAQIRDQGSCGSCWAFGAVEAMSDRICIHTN
T1 sequence (P00787 129-333 limits assumed): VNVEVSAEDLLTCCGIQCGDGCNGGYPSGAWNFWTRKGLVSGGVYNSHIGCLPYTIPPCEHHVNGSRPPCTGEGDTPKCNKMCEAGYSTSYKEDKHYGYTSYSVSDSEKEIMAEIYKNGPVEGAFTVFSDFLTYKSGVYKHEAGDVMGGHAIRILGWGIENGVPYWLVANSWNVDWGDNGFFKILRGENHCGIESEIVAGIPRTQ
T2 sequence (P07154 114-288 limits assumed): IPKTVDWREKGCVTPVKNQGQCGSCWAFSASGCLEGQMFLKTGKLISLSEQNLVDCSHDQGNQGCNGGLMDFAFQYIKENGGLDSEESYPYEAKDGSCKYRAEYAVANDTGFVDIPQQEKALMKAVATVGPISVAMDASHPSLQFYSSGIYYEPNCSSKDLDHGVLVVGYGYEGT
T2 sequence (P07154 291-334 limits assumed): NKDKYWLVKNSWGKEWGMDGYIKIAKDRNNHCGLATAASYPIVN

| Structure (SMILES) | IC50 (Cathepsin B) [nM] | IC50 (Cathepsin L) [nM] | IC50 (M) Cathepsin B (Cathepsin B) |
| --- | --- | --- | --- |
| CN(C)C(=O)[C@H](Cc1ccccc1)NC(=O)[C@H]1O[C@@H]1C(=O)N1CCN(c2nccc(N)n2)CC1 [Compound 90] | > 10000 | 97 | – |
| CN(C)C(=O)[C@H](Cc1ccccc1)NC(=O)[C@H]1O[C@@H]1C(=O)NCCc1csc(N)n1 [Compound 39, N-{L-3-trans-[2-(2-Aminothiazol-4-yl)ethylcarbamoyl]oxirane-2-carbonyl}-L-phenylalanine dimethylamide hydrochloride] | > 100000 | 350 | – |
| CC(C)(C)OC(=O)NCc1ccc(NC(=O)[C@H]2O[C@@H]2C(=O)N[C@@H](Cc2ccccc2)C(=O)NCCc2ccccc2)cc1 [Compound 12, N-{L-3-trans-[4-(t-Butoxycarbonylaminomethyl)phenylcarbamoyl]oxirane-2-carbonyl}-L-phenylalanine-2-phenylethylamide] | > 10000 | 2.5 | – |
| CN(C)C(=O)[C@H](Cc1ccccc1)NC(=O)[C@H]1O[C@@H]1C(=O)Nc1ccc(CNC(=O)c2ccccc2)cc1 [Compound 44, N-{L-3-trans-[4-(Benzoylaminomethyl)phenylcarbamoyl]oxirane-2-carbonyl}-L-phenylalanine dimethylamide] | 77000 | 6 | – |
| CC(=N)Nc1ccc(CCNC(=O)[C@H]2O[C@@H]2C(=O)N[C@@H](Cc2ccccc2)C(=O)N(C)C)cc1 [Compound 86, N-{L-3-trans-[2-(4-Acetoamidinophenyl)ethylcarbamoyl]oxirane-2-carbonyl}-L-phenylalanine dimethylamide hydrobromide] | > 10000 | 46 | – |
| CN(C)C(=O)[C@H](Cc1ccccc1)NC(=O)[C@H]1O[C@@H]1C(=O)NCCc1ccc(N)cn1 [Compound 77, N-{L-3-trans-[2-(5-Aminopyridin-2-yl)ethylcarbamoyl]oxirane-2-carbonyl}-L-phenylalanine dimethylamide] | > 10000 | 82 | – |
| Cc1cc(NC(=O)[C@H]2O[C@@H]2C(=O)N[C@@H](Cc2ccccc2)C(=O)N(C)C)no1 [Compound 41] | > 10000 | 33 | – |
| CN(C)C(=O)[C@H](Cc1ccccc1)NC(=O)[C@H]1O[C@@H]1C(=O)N1CCN(C(=O)OC(C)(C)C)CC1 [Compound 15, N-[L-3-trans-(4-t-Butoxycarbonylpiperazin-1-yl-carbonyl)-oxirane-2-carbonyl]-L-phenylalanine dimethylamide] | > 100000 | 220 | – |
| CNC(=O)[C@H](Cc1ccccc1)NC(=O)[C@H]1O[C@@H]1C(=O)NCCc1ccccn1 [Compound 62, N-{L-3-trans-[2-(Pyridin-2-yl)ethylcarbamoyl]oxirane-2-carbonyl}-L-phenylalanine methylamide] | > 100000 | < 1 | – |
| CN(C)C(=O)[C@H](Cc1ccccc1)NC(=O)[C@H]1O[C@@H]1C(=O)NCCNc1ccc([N+](=O)[O-])cn1 [Compound 46, N-{L-3-trans-[2-(5-Nitropyridin-2-yl)aminoethylcarbamoyl]oxirane-2-carbonyl}-L-phenylalanine dimethylamide] | 85000 | 34 | – |
| CN(C)C(=O)[C@H](Cc1ccccc1)NC(=O)[C@H]1O[C@@H]1C(=O)Nc1ccc(C(C)(C)C)cc1 [Compound 37, N-[L-3-trans-(4-t-Butylphenylcarbamoyl)oxirane-2-carbonyl]-L-phenylalanine dimethylamide] | > 100000 | 45 | – |

More lines, now with the values ahead:

| IC50 (Cathepsin B) [nM] | IC50 (Cathepsin L) [nM] | IC50 (M) Cathepsin B (Cathepsin B) | Structure (SMILES) |
| --- | --- | --- | --- |
| > 100000 | 670 | – | CN(C)C(=O)[C@H](Cc1ccccc1)NC(=O)[C@H]1O[C@@H]1C(=O)NCc1ccc(N)cc1 [Compound 20, N-[L-3-trans-(4-Aminobenzylcarbamoyl)oxirane-2-carbonyl]-L-phenylalanine dimethylamide hydrochloride] |
| > 100000 | 200 | – | CN(C)C(=O)[C@H](Cc1ccccc1)NC(=O)[C@H]1O[C@@H]1C(=O)Nc1cccc(CN)c1 [Compound 6, N-{L-3-trans-[3-(Aminomethyl)phenylcarbamoyl]oxirane-2-carbonyl}-L-phenylalanine dimethylamide hydrochloride] |
| – | 94 | No inhibition | CN(C)C(=O)[C@H](Cc1ccccc1)NC(=O)[C@H]1O[C@@H]1C(=O)NCCc1ccc(N)cc1 [Compound 73, N-{L-3-trans-[2-(4-Aminophenyl)ethylcarbamoyl]oxirane-2-carbonyl}-L-phenylalanine dimethylamide] |
| > 100000 | 470 | – | CN(C)C(=O)[C@H](Cc1ccccc1)NC(=O)[C@H]1O[C@@H]1C(=O)NCCNC(=O)OCc1ccccc1 [Compound 22, N-{L-3-trans-[2-(Benzyloxycarbonylamino)ethylcarbamoyl]oxirane-2-carbonyl}-L-phenylalanine dimethylamide] |
| > 10000 | 47 | – | CN(C)C(=O)[C@H](Cc1ccccc1)NC(=O)[C@H]1O[C@@H]1C(=O)NCCc1ccccn1 [Compound 56, N-{L-3-trans-[2-(Pyridin-2-yl)ethylcarbamoyl]oxirane-2-carbonyl}-L-phenylalanine dimethylamide] |
| > 100000 | 290 | – | CN(C)C(=O)[C@H](Cc1ccccc1)NC(=O)[C@H]1O[C@@H]1C(=O)NC1CCN(Cc2ccccc2)CC1 [Compound 18, N-{L-3-trans-[(1-Benzylpiperidin-4-yl)carbamoyl]oxirane-2-carbonyl}-L-phenylalanine dimethylamide hydrochloride] |
| 45000 | 60 | – | CN(C)C(=O)[C@H](Cc1ccccc1)NC(=O)[C@H]1O[C@@H]1C(=O)Nc1ccc(Oc2ccccc2)cc1 [Compound 48, N-[L-3-trans-(4-Phenoxyphenylcarbamoyl)oxirane-2-carbonyl]-L-phenylalanine dimethylamide] |
| > 100000 | < 100 | – | CN(C)C(=O)[C@H](Cc1ccccc1)NC(=O)[C@H]1O[C@@H]1C(=O)Nc1ccc(CN)cc1 [Compound 8, N-{L-3-trans-[4-(Aminomethyl)phenylcarbamoyl]oxirane-2-carbonyl}-L-phenylalanine dimethylamide hydrochloride] |
| > 100000 | 850 | – | CN(C)C(=O)[C@H](Cc1ccccc1)NC(=O)[C@H]1O[C@@H]1C(=O)N1CCN(Cc2ccccc2)CC1 [Compound 9, N-[L-3-trans-(4-Benzylpiperazin-1-yl-carbonyl)oxirane-2-carbonyl]-L-phenylalanine dimethylamide] |
| > 100000 | 2.2 | – | CCc1ccc(NC(=O)[C@H]2O[C@@H]2C(=O)N[C@@H](Cc2ccccc2)C(=O)N(C)C)cc1 [Compound 29, N-[L-3-trans-(4-Ethylphenylcarbamoyl)oxirane-2-carbonyl]-L-phenylalanine dimethylamide] |
| – | 2400 | No inhibition | CN(C)C(=O)[C@H](Cc1ccccc1)NC(=O)[C@H]1O[C@@H]1C(=O)N(CCN)c1ccccc1 [Compound 11, N-{L-3-trans-[N-(2-Aminoethyl)-N-phenylcarbamoyl]oxirane-2-carbonyl}-L-phenylalanine dimethylamide hydrochloride] |
